According to ChEMBL document CHEMBL1201862, “PubChem BioAssay data set” (2004):
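Values below derive from 48-hour exposures of cells grown in 96-well plates, with endpoints linearly interpolated between the two concentrations bracketing the appropriate inhibition level. GI50 is the concentration that inhibits growth by half.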 Active and inactive are the calls of the source. Cut-off read from the data, not from the text of the source: active = GI50 up to about 1.1 µM and inactive = higher.

How the values were obtained:
Test in all cases: NCI anticancer screen, dose series, 48 h
[1] = test system: UACC-257
[2] = test system: DU-145
[3] = test system: CCRF-CEM
[4] = test system: EKVX
[5] = test system: MDA-MB-231
[6] = test system: HOP-92
[7] = test system: M14
[8] = test system: NCI/ADR-RES
[9] = test system: SNB-75
[10] = test system: SW-620
[11] = test system: MDA-N
[12] = test system: NCI-H460
[13] = test system: HT-29
[14] = test system: ACHN
[15] = test system: SR
[16] = test system: RPMI-8226
[17] = test system: SF-539
[18] = test system: CAKI-1
[19] = test system: KM12
[20] = test system: HCC 2998

Measured: GI50

Cc1c(C)c(C)c(CC2(C)CSC2)c(CC2(C)CSC2)c1C
inactive: [1] > 100 µM | [2] > 100 µM | [3] > 100 µM | [4] > 100 µM | [5] > 100 µM | [6] > 100 µM | [7] > 100 µM | [8] > 100 µM | [9] > 100 µM | [10] > 100 µM | [11] > 100 µM | [12] > 100 µM | [13] > 100 µM | [14] > 100 µM | [15] > 100 µM | [16] > 100 µM | [17] > 100 µM

CC1(CC(=O)OC(C#C[Si](C)(C)C)Cc2ccccc2)OCCO1 (stereo not given)
inactive: [1] > 100 µM | [2] > 100 µM | [3] > 100 µM | [4] > 100 µM | [5] > 100 µM | [7] > 100 µM | [18] > 100 µM | [8] > 100 µM | [9] > 100 µM | [10] > 100 µM | [11] > 100 µM | [13] > 100 µM | [14] > 100 µM | [19] > 100 µM | [17] > 100 µM

O=[N+]([O-])c1ccc(NN=C2CN3CCN(C2)c2ccccc23)c([N+](=O)[O-])c1
inactive: [1] > 100 µM | [2] > 100 µM | [3] > 100 µM | [20] > 100 µM | [4] 40.6 µM | [5] > 100 µM | [6] 85.3 µM | [7] > 100 µM | [18] > 100 µM | [8] > 100 µM | [10] > 100 µM | [11] > 100 µM | [12] > 100 µM | [13] > 100 µM | [14] > 100 µM | [19] > 100 µM | [15] > 100 µM | [17] > 100 µM

Cc1nnc(N)nc1/C=C\c1ccc(Cl)cc1Cl
inactive: [1] 54.6 µM | [2] 72.8 µM | [3] 27.5 µM | [20] 21.6 µM | [4] 39.5 µM | [5] 87.5 µM | [6] 39.2 µM | [7] 29.6 µM | [18] > 100 µM | [8] > 100 µM | [10] 22 µM | [11] 55.5 µM | [12] 19.9 µM | [13] 20.6 µM | [14] 36.4 µM | [19] 18.6 µM | [15] 46.6 µM | [16] 45.4 µM

COc1ccccc1C(=O)N(C)c1ccc(Cl)c(C(=O)OC(C)C)c1
inactive: [1] 23.1 µM | [2] 42.5 µM | [3] > 100 µM | [20] 27 µM | [4] 44.2 µM | [5] > 100 µM | [6] 48.2 µM | [7] 68.9 µM | [18] > 100 µM | [8] 52.1 µM | [9] 30.7 µM | [10] 46.6 µM | [11] 40.8 µM | [12] 42 µM | [13] > 100 µM | [14] 84.9 µM | [19] 23.3 µM | [16] 39.4 µM | [17] > 100 µM

CN(C)P(=O)(Oc1occc1C(O)Cc1ccccc1)N(C)C (stereo not given)
inactive: [1] > 100 µM | [3] > 100 µM | [20] > 100 µM | [4] > 100 µM | [5] > 100 µM | [7] > 100 µM | [18] > 100 µM | [8] > 100 µM | [9] > 100 µM | [10] > 100 µM | [11] > 100 µM | [12] > 100 µM | [14] > 100 µM | [19] > 100 µM | [16] > 100 µM | [17] > 100 µM

N#C/C(N)=C(C#N)/N=C/NCCO
inactive: [1] > 100 µM | [2] > 100 µM | [3] > 100 µM | [20] > 100 µM | [4] > 100 µM | [5] > 100 µM | [7] > 100 µM | [18] > 100 µM | [8] > 100 µM | [9] > 100 µM | [10] > 100 µM | [11] > 100 µM | [12] > 100 µM | [13] > 100 µM | [14] > 100 µM | [19] > 100 µM | [15] > 100 µM | [16] > 100 µM | [17] > 100 µM

CC(=O)Oc1ccc2c(c1)Oc1cc(C(C)=O)ccc1C21OC(=O)c2ccccc21 (stereo not given)
inactive: [1] > 100 µM | [2] > 100 µM | [20] > 100 µM | [4] > 100 µM | [5] > 100 µM | [6] > 100 µM | [7] > 100 µM | [18] > 100 µM | [8] > 100 µM | [9] 94.8 µM | [10] > 100 µM | [11] > 100 µM | [12] > 100 µM | [13] > 100 µM | [14] > 100 µM | [19] > 100 µM | [16] 30.2 µM

COc1ccc2c3c1O[C@H]1C(OC)C=CC4C(C2)N(Cc2cccs2)CCC341 (stereo not given in full)
inactive: [1] 44.4 µM | [3] 49.7 µM | [20] > 100 µM | [4] 88.3 µM | [6] > 100 µM | [7] 70.6 µM | [18] > 100 µM | [8] 33.7 µM | [10] > 100 µM | [11] 60 µM | [12] > 100 µM | [13] 69.7 µM | [14] > 10 µM | [15] 75.5 µM | [16] 62.1 µM

O=C1NC(O)CCN1C1CC(O)C(CO)O1 (stereo not given)
inactive: [1] > 100 µM | [2] > 100 µM | [3] > 100 µM | [20] > 100 µM | [4] > 100 µM | [5] > 100 µM | [6] > 100 µM | [7] > 100 µM | [18] > 100 µM | [8] > 100 µM | [10] > 100 µM | [11] > 100 µM | [12] > 100 µM | [14] > 100 µM | [19] 74.1 µM | [15] > 100 µM | [16] > 100 µM | [17] > 100 µM

O=P(O)(O)C(N=C(Nc1ccccc1)Nc1ccccc1)P(=O)(O)O
inactive: [1] > 100 µM | [2] > 100 µM | [20] > 100 µM | [4] > 100 µM | [5] > 100 µM | [7] > 100 µM | [18] > 100 µM | [8] > 100 µM | [11] > 100 µM | [12] > 100 µM | [13] > 100 µM | [14] > 100 µM | [19] > 100 µM | [17] > 100 µM

CCN(C(=O)N[C@@H](Cc1ccccc1)C(=O)N[C@@H](CC(C)C)C(=O)NC)c1ccccc1
inactive: [1] > 100 µM | [2] > 100 µM | [3] > 100 µM | [20] > 100 µM | [4] > 100 µM | [5] > 100 µM | [6] > 100 µM | [7] > 100 µM | [18] > 100 µM | [8] > 100 µM | [9] 95.3 µM | [10] > 100 µM | [11] > 100 µM | [12] > 100 µM | [13] > 100 µM | [14] > 100 µM | [19] > 100 µM | [16] 77.1 µM | [17] > 100 µM

COC(=O)[C@H]1CO[C@@H](C(C)(C)C)N1C(=O)N1C=CC(=O)C[C@@H]1C
inactive: [1] > 100 µM | [2] > 100 µM | [3] > 100 µM | [4] > 100 µM | [5] > 100 µM | [6] > 100 µM | [18] > 100 µM | [8] > 100 µM | [9] > 100 µM | [10] > 100 µM | [11] > 100 µM | [13] > 100 µM | [14] > 100 µM | [19] > 100 µM | [15] > 100 µM | [16] > 100 µM

CN(/N=C/C=N/N(C)C1=NCCCN1)C1=NCCCN1
inactive: [1] > 100 µM | [3] > 100 µM | [20] > 100 µM | [4] > 100 µM | [5] > 100 µM | [6] > 100 µM | [7] > 100 µM | [18] > 100 µM | [8] > 100 µM | [9] > 100 µM | [10] > 100 µM | [11] > 100 µM | [12] > 100 µM | [13] > 100 µM | [14] > 100 µM | [19] > 100 µM | [15] > 100 µM | [17] > 100 µM

O=C1C2C(C(=O)N1c1ccccc1)C1(c3ccccc3)CCC2(C(=O)c2ccccc2)O1 (stereo not given)
inactive: [1] > 10 µM | [2] > 10 µM | [3] > 10 µM | [20] > 10 µM | [4] > 10 µM | [5] > 10 µM | [7] > 10 µM | [18] > 10 µM | [8] > 10 µM | [10] > 10 µM | [11] > 10 µM | [12] > 10 µM | [13] > 10 µM | [14] > 10 µM | [19] > 10 µM | [16] > 10 µM | [17] > 10 µM

O=C1C(c2c(O)[nH]c3ccc(Cl)cc23)=Nc2ccccc21
inactive: [1] > 53.5 µM | [2] 2.81 µM | [3] 27.4 µM | [4] 5.07 µM | [5] 2.51 µM | [6] 8.02 µM | [7] 6.85 µM | [18] 3.83 µM | [8] 7.91 µM | [9] 4.99 µM | [10] 25.4 µM | [11] 6.38 µM | [12] 12.1 µM | [13] 5.09 µM | [14] 3.86 µM | [19] 3.08 µM | [15] 9.02 µM | [16] 5.09 µM | [17] 4.65 µM
